This test relates to Staphylococcus aureus. In words: Antibacterial activity against methicillin-sensitive Staphylococcus aureus ATCC 29213 after 16 to 20 hrs by broth microdilution method. The format is functional. In general terms: Dilution methods test growth across graded concentrations, often in twofold steps.

Structures are written as SMILES. Converted amounts (≈) assume the structure as drawn.

The compound `Clc1c[nH]nc1-c1nc(-c2ccc(Oc3ccccc3)cc2)no1` registered an MIC of 1 µg/mL (≈ 2.95 µM). For `Oc1ccc(-c2nc(-c3ccc(Oc4ccc(C(F)(F)F)cc4)cc3)no2)cc1O`, the MIC came out at 2 µg/mL (≈ 4.83 µM). The compound `Nc1c[nH]nc1-c1nc(-c2ccc(Oc3ccc(C(F)(F)F)cc3)cc2)no1` displayed an MIC of 4 µg/mL (≈ 10.3 µM).

In turn, `OCC#Cc1c[nH]nc1-c1nc(-c2ccc(Oc3ccc(C(F)(F)F)cc3)cc2)no1` displayed an MIC of 4 µg/mL (≈ 9.38 µM).

`Oc1ccc(-c2nc(-c3ccc(Oc4ccc(C(F)(F)F)cc4)cc3)no2)cn1` gave a minimum inhibitory concentration (MIC) of at least 128 µg/mL. In turn, `O=[N+]([O-])c1cc(-c2nc(-c3ccc(Oc4ccc(C(F)(F)F)cc4)cc3)no2)cnc1O` showed a minimum inhibitory concentration (MIC) of 8 µg/mL (≈ 18 µM). Next, `O=C(Nc1c[nH]nc1-c1nc(-c2ccc(Oc3ccc(C(F)(F)F)cc3)cc2)no1)c1ccccn1`: at least 128 µg/mL.

Compound `Fc1ccc(Oc2ccc(-c3noc(-c4c[nH]c5ncccc45)n3)cc2)cc1` showed a minimal inhibitory concentration (MIC) of at least 128 µg/mL. For the compound `Cl.c1ccc(Oc2ccc(-c3noc(C4CCCN4)n3)cc2)cc1` (configuration not stated), the MIC was determined as 64 µg/mL. `Oc1ccc(-c2nc(-c3ccc(Oc4ccc(C(F)(F)F)cc4)cc3)no2)cc1F` showed a minimum inhibitory concentration (MIC) of 2 µg/mL (≈ 4.8 µM). `Fc1ccc(Oc2ccc(-c3noc(-c4n[nH]c5ccccc45)n3)cc2)cc1` had an MIC of at least 128 µg/mL. As for `O=[N+]([O-])c1c[nH]nc1-c1nc(-c2ccc(Oc3ccccc3)cc2)no1`, the minimum inhibitory concentration (MIC) stood at 2 µg/mL (≈ 5.73 µM).

For `Nc1cc(-c2nc(-c3ccc(Oc4ccc(F)cc4)cc3)no2)ccc1O`, the minimum inhibitory concentration (MIC) is at least 128 µg/mL. In turn, `FC(F)(F)c1ccc(Oc2ccc(-c3noc(-c4n[nH]cc4NC4CCCCC4)n3)cc2)cc1` showed an MIC of at least 128 µg/mL. Next, `C[Si](C)(C)C#Cc1c[nH]nc1-c1nc(-c2ccc(Oc3ccc(C(F)(F)F)cc3)cc2)no1`: at least 128 µg/mL. The compound `O=C(O)c1ccc(-c2nc(-c3ccc(Oc4ccc(F)cc4)cc3)no2)cc1` returned an MIC of at least 128 µg/mL. Take `C=CCOc1cc(N)ccc1-c1nc(-c2ccc(Oc3ccccc3)cc2)no1`: the lowest concentration to inhibit growth (MIC) was 8 µg/mL (≈ 20.8 µM).

Regarding `CC(=O)N1CCC(c2nc(-c3ccc(Oc4ccc(F)cc4)cc3)no2)CC1`, the minimum inhibitory concentration (MIC) is at least 128 µg/mL. On to `CCOP(=O)(OCC)c1ccc(-c2nc(-c3ccc(Oc4ccc(F)cc4)cc3)no2)cc1`, for which the minimal inhibitory concentration (MIC) was at least 128 µg/mL. Next, `Oc1ccc(-c2nc(-c3ccc(Oc4ccc(F)cc4)cc3)no2)cc1`: 1 µg/mL (≈ 2.87 µM). The compound `CCn1ccc(-c2nc(-c3ccc(Oc4ccc(F)cc4)cc3)no2)n1` showed an MIC of at least 128 µg/mL.

For the compound `CC(=O)Nc1ccc(-c2nc(-c3ccc(Oc4ccc(C(F)(F)F)cc4)cc3)no2)cc1`, the MIC was at least 128 µg/mL. As to `FC(F)(F)c1ccc(Oc2ccc(-c3noc(-c4c[nH]c5ncccc45)n3)cc2)cc1`, the MIC is at least 128 µg/mL. Next, `Nc1cncc(-c2nc(-c3ccc(Oc4ccc(C(F)(F)F)cc4)cc3)no2)c1`: at least 128 µg/mL; `Ic1c[nH]nc1-c1nc(-c2ccc(Oc3ccccc3)cc2)no1`: 1 µg/mL (≈ 2.32 µM); `Nc1ccc(-c2nc(-c3ccc(Oc4ccc(C(F)(F)F)cc4)cc3)no2)cc1`: 1 µg/mL (≈ 2.52 µM).

In the case of `COc1ccc(-c2nc(-c3ccc(Oc4ccc(F)cc4)cc3)no2)cc1OC`, the MIC was at least 128 µg/mL. With `Nc1c(F)cc(-c2nc(-c3ccc(Oc4ccc(C(F)(F)F)cc4)cc3)no2)cc1F`, the MIC was 4 µg/mL (≈ 9.23 µM).

As for `Fc1ccc(Oc2ccc(-c3noc(-c4cc[nH]n4)n3)cc2)cc1`, the MIC was at least 128 µg/mL. For `O=[N+]([O-])c1ccc(-c2nc(-c3ccc(Oc4ccccc4)cc3)no2)cc1`, the MIC is at least 32 µg/mL.

Consider `Fc1ccc(-c2nc(-c3ccc(Oc4ccccc4)cc3)no2)cc1`, for which the minimal inhibitory concentration (MIC) was at least 128 µg/mL. For `NCCCCc1nc(-c2ccc(Oc3ccccc3)cc2)no1`, the minimal inhibitory concentration (MIC) was at least 128 µg/mL. In turn, `COc1ccc(-c2nc(-c3ccc(Oc4ccc(C(F)(F)F)cc4)cc3)no2)cc1OC` showed an MIC of at least 128 µg/mL.

For `Fc1ccc(Oc2ccc(-c3noc(-c4ccc5[nH]ccc5c4)n3)cc2)cc1`, the minimal inhibitory concentration (MIC) is 1 µg/mL (≈ 2.69 µM). As to `Fc1ccc(-c2nc(-c3ccc(Oc4ccc(C(F)(F)F)cc4)cc3)no2)cc1`, the minimal inhibitory concentration (MIC) is at least 128 µg/mL. Turning to `CC(C)Nc1c[nH]nc1-c1nc(-c2ccc(Oc3ccccc3)cc2)no1`, the minimal inhibitory concentration (MIC) came to 0.5 µg/mL (≈ 1.38 µM). In the case of `CC(C)CNc1c[nH]nc1-c1nc(-c2ccc(Oc3ccc(C(F)(F)F)cc3)cc2)no1`, the minimum inhibitory concentration (MIC) is at least 128 µg/mL. For `O=C1C[C@@H](c2nc(-c3ccc(Oc4ccc(C(F)(F)F)cc4)cc3)no2)CN1` the value was at least 128 µg/mL. Consider `Nc1c[nH]nc1-c1nc(-c2ccc(Oc3ccccc3)cc2)no1`, for which inhibition of growth (MIC) required 16 µg/mL (≈ 50.1 µM). The compound `Nc1ccc(-c2nc(-c3ccc(Oc4ccccc4)cc3)no2)c(O)c1` had a minimal inhibitory concentration (MIC) of at least 128 µg/mL. `COc1ccc(-c2nc(-c3ccc(Oc4ccccc4)cc3)no2)cc1[N+](=O)[O-]` yielded an MIC of at least 128 µg/mL. Next, `Cc1nc(-c2ccc(Oc3ccccc3)cc2)no1`: at least 128 µg/mL; `c1ccc(Oc2ccc(-c3noc(C4CCOCC4)n3)cc2)cc1`: at least 128 µg/mL; `Oc1cccc(-c2nc(-c3ccc(Oc4ccccc4)cc3)no2)c1`: at least 128 µg/mL. On to `Cl.Nc1ccc(-c2nc(-c3ccc(Oc4ccc(C(F)(F)F)cc4)cc3)no2)cc1`, for which it took 1 µg/mL to inhibit growth (MIC).

For `Oc1ccc(-c2nc(-c3ccc(Oc4ccccc4)cc3)no2)cc1`, inhibition of growth (MIC) required 1 µg/mL (≈ 3.03 µM). With `Oc1ccc(Cc2nc(-c3ccc(Oc4ccccc4)cc3)no2)cc1`, the MIC was 8 µg/mL (≈ 23.2 µM). In the case of `Nc1ccc(-c2nc(-c3ccc(Oc4ccccc4)cc3)no2)cc1F`, the MIC is at least 128 µg/mL. As to `CCOP(=O)(OCC)c1c[nH]nc1-c1nc(-c2ccc(Oc3ccc(C(F)(F)F)cc3)cc2)no1`, the MIC is at least 128 µg/mL. Consider `CCCCNc1c[nH]nc1-c1nc(-c2ccc(Oc3ccc(C(F)(F)F)cc3)cc2)no1`, for which the MIC was at least 128 µg/mL. Regarding `FC(F)(F)c1ccc(Oc2ccc(-c3noc(-c4n[nH]cc4I)n3)cc2)cc1`, the MIC is 2 µg/mL (≈ 4.01 µM). As to `O=c1[nH]c(-c2ccc(Oc3ccccc3)cc2)no1`, the minimal inhibitory concentration (MIC) is at least 128 µg/mL. The compound `NS(=O)(=O)c1ccc(-c2nc(-c3ccc(Oc4ccc(C(F)(F)F)cc4)cc3)no2)cc1` yielded an MIC of at least 128 µg/mL. `Fc1ccc(Oc2ccc(-c3noc(-c4c[nH]cn4)n3)cc2)cc1` had an MIC of at least 128 µg/mL. Next, `Fc1ccc(Oc2ccc(-c3noc(-c4n[nH]cc4I)n3)cc2)cc1`: 4 µg/mL (≈ 8.92 µM); `FC(F)(F)c1ccc(Oc2ccc(-c3noc(-c4n[nH]cc4Br)n3)cc2)cc1`: 1 µg/mL (≈ 2.22 µM). `CS(=O)(=O)Nc1ccc(-c2nc(-c3ccc(Oc4ccc(C(F)(F)F)cc4)cc3)no2)cc1` displayed an MIC of at least 128 µg/mL. `FC(F)(F)c1ccc(Oc2ccc(-c3noc(-c4n[nH]c5ccccc45)n3)cc2)cc1` showed an MIC of at least 128 µg/mL. For `Cc1ccc(S(=O)(=O)N2CCC(c3nc(-c4ccc(Oc5ccc(F)cc5)cc4)no3)CC2)cc1`, the MIC is at least 128 µg/mL. `O=C1CC(c2nc(-c3ccc(Oc4ccc(C(F)(F)F)cc4)cc3)no2)NC(=O)N1` (configuration not stated) registered a minimal inhibitory concentration (MIC) of at least 128 µg/mL. For `FC(F)(F)c1ccc(Oc2ccc(-c3noc(-c4ccc(Br)cc4)n3)cc2)cc1` the value was at least 128 µg/mL. In the case of `Oc1ccc(-c2nc(-c3ccc(Oc4ccc(F)cc4)cc3)no2)cn1`, the minimal inhibitory concentration (MIC) is at least 128 µg/mL.

For the compound `Nc1cc(-c2nc(-c3ccc(Oc4ccc(C(F)(F)F)cc4)cc3)no2)cnc1O`, the MIC is at least 128 µg/mL. The compound `Oc1ccc(-c2nc(-c3ccc(Oc4ccccc4)cc3)no2)cc1F` returned a minimum inhibitory concentration (MIC) of 4 µg/mL (≈ 11.5 µM).

With `Fc1ccc(Oc2ccc(-c3noc(-c4ccc(Br)cc4)n3)cc2)cc1`, the MIC is at least 128 µg/mL. In turn, `Nc1ccc(-c2nc(-c3ccc(Oc4ccc(F)cc4)cc3)no2)cc1` registered a minimum inhibitory concentration (MIC) of at least 128 µg/mL. As to `Cl.c1ccc(Oc2ccc(-c3noc(C4CCNCC4)n3)cc2)cc1`, the minimum inhibitory concentration (MIC) is 32 µg/mL. For `FC(F)(F)c1ccc(Oc2ccc(-c3noc(-c4cn[nH]n4)n3)cc2)cc1` the value was 16 µg/mL (≈ 42.9 µM); for `Oc1cc(-c2nc(-c3ccc(Oc4ccccc4)cc3)no2)ccc1I`, at least 128 µg/mL. `Brc1c[nH]nc1-c1nc(-c2ccc(Oc3ccccc3)cc2)no1` registered an MIC of 1 µg/mL (≈ 2.61 µM). For `O=C1C[C@H](c2nc(-c3ccc(Oc4ccc(C(F)(F)F)cc4)cc3)no2)CN1` the value was at least 128 µg/mL; for `O=[N+]([O-])c1c[nH]nc1-c1nc(-c2ccc(Oc3ccc(C(F)(F)F)cc3)cc2)no1`, 2 µg/mL (≈ 4.79 µM); for `O=P(O)(O)c1ccc(-c2nc(-c3ccc(Oc4ccc(F)cc4)cc3)no2)cc1`, at least 128 µg/mL. With `Oc1ccc(-c2nc(-c3ccc(Oc4ccc(F)cc4)cc3)no2)cc1F`, the MIC came out at 2 µg/mL (≈ 5.46 µM). For `COc1ccc(-c2nc(-c3ccc(Oc4ccc(F)cc4)cc3)no2)cc1[N+](=O)[O-]` the value was at least 128 µg/mL; for `CC(C)c1cc(-c2nc(-c3ccc(Oc4ccc(F)cc4)cc3)no2)n[nH]1`, at least 128 µg/mL; for `Nc1ccc(-c2nc(-c3ccc(Oc4ccc(C(F)(F)F)cc4)cc3)no2)cc1F`, 2 µg/mL (≈ 4.82 µM).

In turn, `Oc1ccccc1-c1nc(-c2ccc(Oc3ccccc3)cc2)no1` came in with an MIC of at least 128 µg/mL. With `COc1ccc(-c2nc(-c3ccc(Oc4ccc(C(F)(F)F)cc4)cc3)no2)cc1[N+](=O)[O-]`, the MIC is at least 128 µg/mL.

In turn, `Nc1ccc(-c2nc(-c3ccc(Oc4ccccc4)cc3)no2)cc1` gave an MIC of 4 µg/mL (≈ 12.1 µM). Compound `O=[N+]([O-])c1ccc(-c2nc(-c3ccc(Oc4ccc(C(F)(F)F)cc4)cc3)no2)cc1` yielded a minimal inhibitory concentration (MIC) of at least 128 µg/mL. In turn, `Cl.NC(Cc1ccccc1)c1nc(-c2ccc(Oc3ccccc3)cc2)no1` (configuration not stated) registered a minimal inhibitory concentration (MIC) of at least 128 µg/mL. `COC(=O)c1ccc(-c2nc(-c3ccc(Oc4ccc(F)cc4)cc3)no2)cc1` had an MIC of at least 128 µg/mL. Compound `O=[N+]([O-])c1cc(-c2nc(-c3ccc(Oc4ccc(F)cc4)cc3)no2)cnc1O` gave an MIC of 8 µg/mL (≈ 20.3 µM). Next, `c1ccc(Oc2ccc(-c3noc(-c4ccncc4)n3)cc2)cc1`: at least 128 µg/mL; `COc1ccc(-c2nc(-c3ccc(Oc4ccccc4)cc3)no2)cc1N`: at least 128 µg/mL. On to `Oc1c(F)cc(-c2nc(-c3ccc(Oc4ccc(F)cc4)cc3)no2)cc1F`, for which inhibition of growth (MIC) required 8 µg/mL (≈ 20.8 µM). For `Nc1cc(-c2nc(-c3ccc(Oc4ccc(F)cc4)cc3)no2)cnc1O` the value was at least 128 µg/mL; for `O=[N+]([O-])c1c[nH]c(-c2nc(-c3ccc(Oc4ccc(C(F)(F)F)cc4)cc3)no2)c1`, 8 µg/mL (≈ 19.2 µM); for `Cc1ccc(S(=O)(=O)N2CCC(c3nc(-c4ccc(Oc5ccccc5)cc4)no3)CC2)cc1`, at least 128 µg/mL.

`NC(=O)c1ccc(-c2nc(-c3ccc(Oc4ccc(F)cc4)cc3)no2)cc1` gave a minimal inhibitory concentration (MIC) of at least 128 µg/mL. Turning to `O=[N+]([O-])c1c[nH]nc1-c1nc(-c2ccc(Oc3ccc(F)cc3)cc2)no1`, the MIC was 1 µg/mL (≈ 2.72 µM).

What is called MIC is the least concentration at which growth counts as inhibited. High values mean a need for much substance, low ones inhibition by little substance.

The values are drawn from ChEMBL document CHEMBL3407479, “Structure-activity relationship for the oxadiazole class of antibiotics” (J Med Chem, 2015).
